Data taken from US7807676B2, “Diketo-Piperazine and Piperidine derivatives as antiviral agents” (priority 2006, dated 2010).

Tested on: HIV-1 single-round infectious reporter virus
Assay: Single-round infectious HIV-1 luciferase reporter virus infection of HeLa CD4 cells (antiviral EC50)
Format: cell-based
Settings: Human immunodeficiency virus 1, HeLa, read-out: EC50 Group from Table 3
How it was run: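 Compound (≤10 μM final, 10 concentrations) was added to HeLa CD4 cells together with luciferase-reporter HIV-1 pseudovirus (nef replaced by luciferase, envelope supplied in trans) at MOI ~0.01. Cells were lysed 72 h post-infection at 37 °C for luminescence; percent inhibition versus untreated infection, fitted four-parameter logistic for EC50.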

SMILES | EC50
COc1cnc(-n2cnc(C)n2)c2[nH]cc(C(=O)C(=O)N3CCN(c4ncccc4C(O)c4nccs4)CC3)c12 (centres unmarked) [A-66] | < 500 nM
COc1cnc(-n2cnc(C)n2)c2[nH]cc(C(=O)C(=O)N3CCN(c4nc5ccccc5n4-c4ccccc4)CC3)c12 [A-38] | < 500 nM
COc1cnc(-n2cnc(C)n2)c2[nH]cc(C(=O)C(=O)N3CCN(c4nn(C)nc4-c4ccccc4)CC3)c12 [G-23] | < 500 nM
O=C(C(=O)N1C[C@@H]2C[C@H]1CN2c1nnnn1-c1ccccc1)c1c[nH]c2c(-n3ccnn3)ncc(F)c12 [A-74] | > 500 nM
O=C1C(c2ccccc2)=C(N2CCN(C(=O)C(=O)c3c[nH]c4c(-n5ccnn5)ncc(F)c34)CC2)c2ccccc21 [D-23] | < 500 nM
COc1cnc(-c2cnccn2)c2[nH]cc(C(=O)C(=O)N3CCN(c4nncn4-c4ccccc4)CC3)c12 [A-57] | < 500 nM
COc1cnc(-c2cnc(N3CCOCC3)cn2)c2[nH]cc(C(=O)C(=O)N3CCN(c4nnnn4-c4ccccc4)CC3)c12 [G-2b] | < 500 nM
COc1cnc(-c2ccnc(C)c2)c2[nH]cc(C(=O)C(=O)N3CCN(c4nnnn4-c4ccccn4)CC3)c12 [H-12] | < 500 nM
COc1cnc(-n2cnc(C)n2)c2[nH]cc(C(=O)C(=O)N3CCN(c4ncccc4C(=O)NCCCN(C)C)CC3)c12 [D-51] | > 500 nM
CCOC(=O)c1cc(-c2ncc(F)c3c(C(=O)C(=O)N4CCN(c5nnnn5-c5ccccc5)CC4)c[nH]c23)n[nH]1 [B-33] | < 500 nM
COc1cnc(-n2cnc(C)n2)c2[nH]cc(C(=O)C(=O)N3CCN(c4nnnn4-c4ccccc4)C[C@H]3C)c12 [A-30] | < 500 nM
CN1CCC(N(C)C(=O)c2cc(-c3ncc(F)c4c(C(=O)C(=O)N5CCN(c6nnnn6-c6ccccc6)CC5)c[nH]c34)n[nH]2)C1 (centres unmarked) [F-2] | < 500 nM
COc1cnc(-c2ccn(CC(=O)N(C)C)n2)c2[nH]cc(C(=O)C(=O)N3CCN(c4nnnn4-c4ccccn4)CC3)c12 [B-76] | > 500 nM
COc1cnc(-n2cnc(C)n2)c2[nH]cc(C(=O)C(=O)N3CCN(c4ncnc5cc(-c6ccccc6)sc45)C[C@H]3C)c12 [D-11] | > 500 nM
O=C(C(=O)N1CCN(c2cc(O)nnc2-c2ccccc2)CC1)c1c[nH]c2c(-n3ccnn3)ncc(F)c12 [A-6] | < 500 nM
COc1cnc(-n2cnc(C)n2)c2[nH]cc(C(=O)C(=O)N3C[C@H](C)N(c4nnnn4-c4ccccc4)C[C@H]3C)c12 [A-32] | < 500 nM
COc1cnc(-n2cnc(C)n2)c2[nH]cc(C(=O)C(=O)N3CCN(c4ccnn4-c4ccccc4)CC3)c12 [G-9a] | < 500 nM
COc1cnc(-n2cnc(C)n2)c2[nH]cc(C(=O)C(=O)N3CCN(c4nnnn4-c4ncco4)CC3)c12 [E-7] | < 500 nM
CCOC(=O)c1ncc(F)c2c(C(=O)C(=O)N3CCN(c4nnnn4-c4ccccc4)CC3)c[nH]c12 [B-57] | < 500 nM
O=C(C(=O)N1CCN(c2cnnn2-c2ccccn2)CC1)c1c[nH]c2c(-n3ccnn3)ncc(F)c12 [G-22a] | < 500 nM
CCOc1cccnc1N1CCN(C(=O)C(=O)c2c[nH]c3c(-n4cnc(C)n4)ncc(OC)c23)CC1 [A-63] | < 500 nM
COc1cnc(-n2cnc(C)n2)c2[nH]cc(C(=O)C(=O)N3CCN(c4cncnc4-c4ccccc4)CC3)c12 [G-19b] | < 500 nM
COc1cnc(-n2cnc(C)n2)c2[nH]cc(C(=O)C(=O)N3CCN(c4ncccc4C(=O)N4CCOCC4)C[C@H]3C)c12 [D-13] | > 500 nM
CN(C)c1nc(N2CCN(C(=O)C(=O)c3c[nH]c4c(-n5ccnn5)ncc(F)c34)CC2)nn1-c1ccccc1 [G-4c] | > 500 nM
O=C(C(=O)N1CCN(c2nnnn2-c2ccccc2)CC1)c1c[nH]c2c(-c3cc(C(=O)N4CCC(O)CC4)[nH]n3)ncc(F)c12 [F-16] | < 500 nM
COc1nc(N2CCN(C(=O)C(=O)c3c[nH]c4c(-n5ccnn5)ncc(F)c34)CC2)n(-c2ccccc2)n1 [G-29a] | < 500 nM
